Results on one compound are retold here after patent publication US6617351B1, “Amide, carbamate, and urea derivatives” (Eli Lilly and Company, priority 1998, dated 2003).

Each structure is given as a SMILES string.

This assay deals with T1, human GluR4B receptor (Homo sapiens, UniProt P48058).
T1 construct: expressed in transfected cells; host or cells: HEK293
As to the kind of experiment: potentiation of agonist-induced excitability of human GluR4B receptor expressed in HEK 293 cells. In kind it is cell-based. From the text: The ability of compounds of formula I to potentiate glutamate receptor-mediated response may be determined using fluorescent calcium indicator dyes (Molecular Probes, Eugene, Oreg., Fluo-3) and by measuring glutamate-evoked efflux of calcium into GluR4 transfected HEK293 cells, as described in more detail below.
In one test, 96 well plates containing confluent monolayers of HEK cells stably expressing human GluR4B (obtained as described in European Patent Application Publication Number EP-A1-583917) are prepared. […]
Each test is then performed as follows. […] A second fluorescent reading is taken after 5 minutes incubation. 15 μl of 400 μM glutamate solution is then added to each well (final glutamate concentration 100 μM), and a third reading is taken. The activities of test compounds and cyclothiazide solutions are determined by subtracting the second from the third reading (fluorescence due to addition of glutamate in the presence or absence of test compound or cyclothiazide) and are expressed relative to enhance fluorescence produced by 100 μM cyclothiazide.
In another test, HEK293 cells stably expressing human GluR4 (obtained as described in European Patent Application Publication No. EP-A1-0583917) are used in the electro-physiological characterization of AMPA receptor potentiators. […] Responses to 1 mM glutamate are then determined in the presence of test compound. […]

T1 sequence (P48058 21-902): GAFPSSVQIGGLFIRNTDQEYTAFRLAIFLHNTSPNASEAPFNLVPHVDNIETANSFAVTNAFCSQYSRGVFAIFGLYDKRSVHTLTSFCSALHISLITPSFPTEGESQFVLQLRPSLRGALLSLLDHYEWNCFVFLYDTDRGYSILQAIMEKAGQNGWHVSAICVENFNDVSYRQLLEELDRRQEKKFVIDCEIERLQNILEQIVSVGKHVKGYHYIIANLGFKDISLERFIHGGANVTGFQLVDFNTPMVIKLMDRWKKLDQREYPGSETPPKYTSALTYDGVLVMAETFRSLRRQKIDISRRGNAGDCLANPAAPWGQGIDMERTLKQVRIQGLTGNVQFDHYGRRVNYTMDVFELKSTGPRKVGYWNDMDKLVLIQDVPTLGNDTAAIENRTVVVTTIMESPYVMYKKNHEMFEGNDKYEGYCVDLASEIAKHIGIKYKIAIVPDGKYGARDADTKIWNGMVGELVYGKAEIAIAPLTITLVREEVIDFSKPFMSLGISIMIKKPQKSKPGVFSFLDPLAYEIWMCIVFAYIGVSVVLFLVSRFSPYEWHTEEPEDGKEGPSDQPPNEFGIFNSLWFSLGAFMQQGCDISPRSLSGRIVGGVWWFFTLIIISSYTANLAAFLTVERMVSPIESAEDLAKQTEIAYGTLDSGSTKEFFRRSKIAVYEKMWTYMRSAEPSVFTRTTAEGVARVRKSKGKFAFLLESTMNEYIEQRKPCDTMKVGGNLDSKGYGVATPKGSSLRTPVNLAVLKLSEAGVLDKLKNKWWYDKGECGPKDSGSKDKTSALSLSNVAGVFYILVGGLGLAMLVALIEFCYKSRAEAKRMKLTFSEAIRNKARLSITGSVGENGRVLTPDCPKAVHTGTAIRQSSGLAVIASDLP

Turning to `NS(=O)(=O)c1cc2c(cc1Cl)NC(C1CC3C=CC1C3)NS2(=O)=O` (stereo not shown) [cyclothiazide], the “potentiation of agonist-induced excitability” value is given as “potentiate agonist-induced excitability”.
